Common to all, as to assay: MTT cytotoxicity assay, 48 h, alone and in combination (IC50 and Combination Index)
Type in all cases: cell-based
Background: Formazan colour is commonly taken as a measure of viable cells.

The subject of one experiment is PA-1 cell line. Conditions: read-out: IC50 of Cisplatin.
Another experiment concerns KB cell line.
The next experiment concerns T24 cell line. Conditions: for Conc. of other therapeutic agents showing synergistic effect: paired with SEQ ID NO: 1 conc. The protocol: (§1) The cell were kept in contact with the recombinant lectin of SEQ ID NO: 1 and the chemotherapy agent for 48 h and the cytotoxic effect (percentage cytotoxicity) was measured. The cytotoxic effect was determined by well-known colorimetric MTT assay (Mossman, T. 1983 Rapid colorimetric assay for cellular growth and survival: application to proliferation and cytotoxicity assays Journal of Immunological Methods, volume 65, pages 55-63) for assessing cell metabolic activity.
(§2) Based on percentage cytotoxicity data, IC50 values were determined using the software GraphPad Prism version 4.01.
(§3) Combination Index (CI) values were determined for each drug concentration combination. The CI values were calculated based on the IC50 values using the formula as given in below.
A study was performed to determine the effect of the concentration of the recombinant lectin represented by SEQ ID NO: 1 on the IC50 of Cisplatin for cytotoxicity in T24 cells. Conversely the effect of the concentration of Cisplatin on the IC50 of the recombinant lectin represented by SEQ ID NO: 1.
Similarly another study was performed for Gemcitabine in combination with the recombinant lectin of SEQ ID NO: 1.
This was performed using the same techniques as in Example 1-1.
In a further study, T24 cells were treated with Cisplatin (1 μM-500 μM) in combination with SEQ ID NO: 1(2.5 μg/mL-80 μg/mL) for 48 h. Similarly another set of cells were treated with Gemcitabine (1 μM-300 μM) in combination with SEQ ID NO: 1 (2.5 μg/mL-80 μg/mL). Combination Index values were determined for each drug combination and resultant antagonistic, additive or synergistic effect was determined, as described in Example 1-2.

The test system of another experiment is PANC-1 cell line. Conditions: Homo sapiens. The method, then:
The cytotoxic effect on each combination was determined by MTT assay.
as §3

For another experiment, the system named is HT-29 cell line. The settings on record: Homo sapiens.
The next experiment has as its system MDA-MB-231 cell line. Conditions: read-out: IC50 of Carboplatin. The protocol:
as §1, §2, §3
A study was performed to determine the effect of the concentration of the recombinant lectin represented by SEQ ID NO: 1 on the IC50 of Paclitaxel for cytotoxicity in MDA-MB-231 cells. Conversely the effect of the concentration of Paclitaxel on the IC50 of the recombinant lectin represented by SEQ ID NO: 1.
Similarly another study was performed for Carboplatin in combination with the recombinant lectin of SEQ ID NO: 1.
In a further study, MDA-MB-231 cells were treated with Paclitaxel (0.001 nM-10 nM) in combination with SEQ ID NO: 1(2.5 μg/mL-80 μg/mL) for 48 h. Similarly another set of cells were treated with Carboplatin (10 μM-1000 μM) in combination with SEQ ID NO: 1 (2.5 μg/mL-80 μg/mL).

The mark [1] stands for this setting: SEQ ID NO: 1 at 0 μg/mL, read-out: IC50 of Cisplatin.
[2] abbreviates: SEQ ID NO: 1 at 5 μg/mL, read-out: IC50 of Cisplatin.
Setting [3] is: SEQ ID NO: 1 at 10 μg/mL, read-out: IC50 of Cisplatin.
Where [4] appears, read: SEQ ID NO: 1 at 20 μg/mL, read-out: IC50 of Cisplatin.
[5] abbreviates: SEQ ID NO: 1 at 40 μg/mL, read-out: IC50 of Cisplatin.

The structures appear in SMILES notation. Read-outs that look alike come from different tables or passages of the source.

Protocol for KB cell line: A study was performed to determine the effect of the concentration of the recombinant lectin represented by SEQ ID NO: 1 on the IC50 of5-FU for cytotoxicity in KB cells.
Similarly another study was performed for Cisplatin in combination with the recombinant lectin of SEQ ID NO: 1.
Similarly another set of cells were treated with Cisplatin(0.1 μM to 1.5 μM)in combination with SEQ ID NO: 1(5.0 μg/mL-90 μg/mL).
Protocol for PA-1 cell line: In a further study, PA-1 cells were treated with Cisplatin(0.01 μM-5 μM) in combination with SEQ ID NO: 1(1 μg/mL-20 μg/mL) for 48 h. Similarly another set of cells were treated with Paclitaxel (0.01 nM-5 nM) in combination with SEQ ID NO: 1 (1 μg/mL-20 μg/mL).

Turning to `N.N.[Cl][Pt][Cl]` [Cisplatin, reference compound], the IC50 in the experiment on PA-1 cell line (SEQ ID NO: 1 at 1 μg/mL) came out at 716 nM; in the experiment with PA-1 cell line (SEQ ID NO: 1 at 5 μg/mL), 93 nM; with PA-1 cell line (SEQ ID NO: 1 at 10 μg/mL), 4.2 nM; in the experiment on PA-1 cell line (SEQ ID NO: 1 at 15 μg/mL), 0.5 nM; in the experiment on PA-1 cell line (SEQ ID NO: 1 at 20 μg/mL), 0.1 nM; in the experiment with PA-1 cell line (SEQ ID NO: 1 at […]), 314 nM. For the same molecule, the IC50 in the experiment with KB cell line (setting [1]) came to 722 nM; with KB cell line (setting [2]) it was 375 nM; in the experiment with KB cell line (setting [3]) it was 269 nM; with KB cell line (setting [4]), 134 nM; in the experiment on KB cell line (SEQ ID NO: 1 at 30 μg/mL, read-out: IC50 of Cisplatin), 66.2 nM; in the experiment with KB cell line (setting [5]) it was 7.12 nM. The IC50 in the experiment with KB cell line (SEQ ID NO: 1 at 90 μg/mL, read-out: IC50 of Cisplatin) turned out to be 9.93 nM; with T24 cell line (setting [1]), 39000 nM; with T24 cell line (setting [2]), 3800 nM; in the experiment with T24 cell line (setting [3]), 97.1 nM; in the experiment with T24 cell line (setting [4]), 34.4 nM; with T24 cell line (setting [5]) it was 83.6 nM. Further, the IC50 stood at 13.4 nM with T24 cell line (SEQ ID NO: 1 at 80 μg/mL, read-out: IC50 of Cisplatin) and 22900 nM with T24 cell line (SEQ ID NO: 1 at […], read-out: IC50 of Cisplatin). Further, the “Conc. of other therapeutic agents showing synergistic effect” value in the experiment with T24 cell line (Cisplatin with SEQ ID NO: 1) was in the range of 1 to 500 µM.

`O=c1[nH]cc(F)c(=O)[nH]1` [5-FU, 5-Fluorouracil, reference compound]: the “Conc. of other therapeutic agents showing synergistic effect” value in the experiment on KB cell line (5-FU with SEQ ID NO: 1, paired with SEQ ID NO: 1 conc.) was in the range of 0.01 to 5 µM. Further, the IC50 in the experiment on KB cell line (Homo sapiens, KB, read-out: IC50 of 5-FU, SEQ ID NO: 1 at 0 μg/mL) was determined as 15 nM; with KB cell line (Homo sapiens, KB, read-out: IC50 of 5-FU, SEQ ID NO: 1 at 5 μg/mL), 0.1 nM; with KB cell line (Homo sapiens, KB, read-out: IC50 of 5-FU, SEQ ID NO: 1 at 10 μg/mL), 0.00531 nM; in the experiment on KB cell line (Homo sapiens, KB, read-out: IC50 of 5-FU, SEQ ID NO: 1 at 20 μg/mL) it was 0.0134 nM; with KB cell line (Homo sapiens, KB, read-out: IC50 of 5-FU, SEQ ID NO: 1 at 30 μg/mL), 0.00119 nM; in the experiment with PANC-1 cell line (PANC-1, read-out: IC50 of 5-FU, SEQ ID NO: 1 at 0 μg/mL), 87000 nM. Also, the IC50 with PANC-1 cell line (PANC-1, read-out: IC50 of 5-FU, SEQ ID NO: 1 at 5 μg/mL) was 1410 nM; in the experiment with PANC-1 cell line (PANC-1, read-out: IC50 of 5-FU, SEQ ID NO: 1 at 10 μg/mL), 1260 nM; in the experiment on PANC-1 cell line (PANC-1, read-out: IC50 of 5-FU, SEQ ID NO: 1 at 20 μg/mL), 869 nM; in the experiment with PANC-1 cell line (PANC-1, read-out: IC50 of 5-FU, SEQ ID NO: 1 at 40 μg/mL), 8450 nM; in the experiment on PANC-1 cell line (PANC-1, read-out: IC50 of 5-FU, SEQ ID NO: 1 at 80 μg/mL), 725 nM; in the experiment on PANC-1 cell line (PANC-1, read-out: IC50 of 5-FU, SEQ ID NO: 1 at […]), 297000 nM. Moreover, the IC50 in the experiment with HT-29 cell line (HT-29, read-out: IC50 of 5-FU, SEQ ID NO: 1 at 0 μg/mL) stood at 137000 nM; with HT-29 cell line (HT-29, read-out: IC50 of 5-FU, SEQ ID NO: 1 at 1 μg/mL) it was 173000 nM; in the experiment with HT-29 cell line (HT-29, read-out: IC50 of 5-FU, SEQ ID NO: 1 at 5 μg/mL), 25900 nM; with HT-29 cell line (HT-29, read-out: IC50 of 5-FU, SEQ ID NO: 1 at 10 μg/mL), 4510 nM; in the experiment on HT-29 cell line (HT-29, read-out: IC50 of 5-FU, SEQ ID NO: 1 at 20 μg/mL), 282 nM; with HT-29 cell line (HT-29, read-out: IC50 of 5-FU, SEQ ID NO: 1 at 40 μg/mL) it was 1240 nM. Moreover, the IC50 in the experiment with HT-29 cell line (HT-29, read-out: IC50 of 5-FU, SEQ ID NO: 1 at 80 μg/mL) worked out at 4880 nM.

With `N.N.O=C([O-])C1(C(=O)[O-])CCC1.[Pt+2]` [Carboplatin, reference compound], the IC50 in the experiment on MDA-MB-231 cell line (SEQ ID NO: 1 at 0 μg/mL) was 477000 nM; in the experiment with MDA-MB-231 cell line (SEQ ID NO: 1 at 5 μg/mL), 3980 nM; with MDA-MB-231 cell line (SEQ ID NO: 1 at 10 μg/mL), 4920 nM; with MDA-MB-231 cell line (SEQ ID NO: 1 at 20 μg/mL), 8440 nM; in the experiment on MDA-MB-231 cell line (SEQ ID NO: 1 at 40 μg/mL) it was 1420 nM; in the experiment on MDA-MB-231 cell line (SEQ ID NO: 1 at 80 μg/mL), 5870 nM. The IC50 in the experiment with MDA-MB-231 cell line (SEQ ID NO: 1 at […]) was 226000 nM.

`Nc1ccn([C@@H]2O[C@H](CO)[C@@H](O)C2(F)F)c(=O)n1` [Gemcitabine, reference compound]: the IC50 came to 7410 nM in the experiment with PANC-1 cell line (PANC-1, SEQ ID NO: 1 at 0 μg/mL, read-out: IC50 of Gemcitabine); 10800 nM in the experiment on PANC-1 cell line (PANC-1, SEQ ID NO: 1 at 5 μg/mL, read-out: IC50 of Gemcitabine); 3040 nM with PANC-1 cell line (PANC-1, SEQ ID NO: 1 at 10 μg/mL, read-out: IC50 of Gemcitabine); 39 nM with PANC-1 cell line (PANC-1, SEQ ID NO: 1 at 20 μg/mL, read-out: IC50 of Gemcitabine); 38 nM in the experiment on PANC-1 cell line (PANC-1, SEQ ID NO: 1 at 40 μg/mL, read-out: IC50 of Gemcitabine); 10600 nM in the experiment on PANC-1 cell line (PANC-1, SEQ ID NO: 1 at 80 μg/mL, read-out: IC50 of Gemcitabine). The IC50 with PANC-1 cell line (PANC-1, SEQ ID NO: 1 at […], read-out: IC50 of Gemcitabine) is 15900 nM; in the experiment on T24 cell line (Homo sapiens, T-24, SEQ ID NO: 1 at 0 μg/mL, read-out: IC50 of Gemcitabine), 15400 nM; with T24 cell line (Homo sapiens, T-24, SEQ ID NO: 1 at 5 μg/mL, read-out: IC50 of Gemcitabine), 141 nM; in the experiment on T24 cell line (Homo sapiens, T-24, SEQ ID NO: 1 at 10 μg/mL, read-out: IC50 of Gemcitabine), 0.32 nM; with T24 cell line (Homo sapiens, T-24, SEQ ID NO: 1 at 20 μg/mL, read-out: IC50 of Gemcitabine), 0.02 nM; in the experiment with T24 cell line (Homo sapiens, T-24, SEQ ID NO: 1 at […], read-out: IC50 of Gemcitabine), 802 nM. The “Conc. of other therapeutic agents showing synergistic effect” value in the experiment on T24 cell line (Gemcitabine with SEQ ID NO: 1) was 1 to 300 µM.

Consider `CCc1c2c(nc3ccc(OC(=O)N4CCC(N5CCCCC5)CC4)cc13)-c1cc3c(c(=O)n1C2)COC(=O)[C@]3(O)CC` [Irinotecan, reference compound], for which the IC50 with HT-29 cell line (HT-29, SEQ ID NO: 1 at 0 μg/mL, read-out: IC50 of Irinotecan) was 16200 nM; in the experiment with HT-29 cell line (HT-29, SEQ ID NO: 1 at 1 μg/mL, read-out: IC50 of Irinotecan), 49200 nM; with HT-29 cell line (HT-29, SEQ ID NO: 1 at 5 μg/mL, read-out: IC50 of Irinotecan), 2780 nM; in the experiment with HT-29 cell line (HT-29, SEQ ID NO: 1 at 10 μg/mL, read-out: IC50 of Irinotecan), 5450 nM; in the experiment on HT-29 cell line (HT-29, SEQ ID NO: 1 at 20 μg/mL, read-out: IC50 of Irinotecan), 1340 nM; in the experiment on HT-29 cell line (HT-29, SEQ ID NO: 1 at 40 μg/mL, read-out: IC50 of Irinotecan), 278 nM. Besides, the IC50 in the experiment with HT-29 cell line (HT-29, SEQ ID NO: 1 at 80 μg/mL, read-out: IC50 of Irinotecan) worked out at 167 nM.

The record behind these values is patent US20220257704A1, “COMBINATION OF CHEMOTHERAPY WITH RECOMBINANT S. ROLFSII LECTIN” (Unichem Laboratories Ltd, priority 2018, published 2022).
